Assay results from ChEMBL document CHEMBL5131450, “Diaryl triazenes inhibit cytochrome P450 1A1 and 1B1 more strongly than aryl morpholino triazenes” (Bioorg Med Chem Lett, 2022).

Tests used:
Format in all cases: ADME
[1] = molecular target: T1, Cytochrome P450 1B1 (Homo sapiens, UniProt Q16678); test: Inhibition of CYP1B1 (unknown origin)
T1 sequence (Q16678 whole entry): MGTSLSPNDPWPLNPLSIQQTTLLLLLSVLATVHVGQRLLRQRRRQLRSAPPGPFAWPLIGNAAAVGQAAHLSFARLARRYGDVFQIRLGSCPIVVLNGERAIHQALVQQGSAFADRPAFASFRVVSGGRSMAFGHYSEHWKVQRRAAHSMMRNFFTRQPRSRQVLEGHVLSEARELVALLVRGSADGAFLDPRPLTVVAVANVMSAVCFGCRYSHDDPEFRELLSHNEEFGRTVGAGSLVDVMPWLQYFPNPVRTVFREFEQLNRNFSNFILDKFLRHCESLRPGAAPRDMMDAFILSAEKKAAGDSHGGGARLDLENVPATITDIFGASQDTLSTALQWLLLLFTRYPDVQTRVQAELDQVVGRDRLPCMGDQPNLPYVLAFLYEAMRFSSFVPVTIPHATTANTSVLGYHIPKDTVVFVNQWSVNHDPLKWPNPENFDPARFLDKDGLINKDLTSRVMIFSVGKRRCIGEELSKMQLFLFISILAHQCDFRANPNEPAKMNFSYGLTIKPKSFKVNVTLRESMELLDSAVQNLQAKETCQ

[2] = molecular target: T2, {'v': 'CYP1B1', 'o': 'p', 'q': 'Inhibition of CYP1B1 (unknown origin)'} (Homo sapiens, UniProt Q16678); test: Inhibition of CYP1B1 (unknown origin) assessed as remaining enzyme activity relative to control
T2 sequence (Q16678 whole entry): T1 sequence (Q16678 whole entry)

[3] = molecular target: T3, {'v': 'CYP1A1', 'o': 'p', 'q': 'Inhibition of CYP1A1 (unknown origin)'} (Homo sapiens, UniProt P04798); test: Inhibition of CYP1A1 (unknown origin) assessed as remaining enzyme activity relative to control
T3 sequence (P04798 whole entry): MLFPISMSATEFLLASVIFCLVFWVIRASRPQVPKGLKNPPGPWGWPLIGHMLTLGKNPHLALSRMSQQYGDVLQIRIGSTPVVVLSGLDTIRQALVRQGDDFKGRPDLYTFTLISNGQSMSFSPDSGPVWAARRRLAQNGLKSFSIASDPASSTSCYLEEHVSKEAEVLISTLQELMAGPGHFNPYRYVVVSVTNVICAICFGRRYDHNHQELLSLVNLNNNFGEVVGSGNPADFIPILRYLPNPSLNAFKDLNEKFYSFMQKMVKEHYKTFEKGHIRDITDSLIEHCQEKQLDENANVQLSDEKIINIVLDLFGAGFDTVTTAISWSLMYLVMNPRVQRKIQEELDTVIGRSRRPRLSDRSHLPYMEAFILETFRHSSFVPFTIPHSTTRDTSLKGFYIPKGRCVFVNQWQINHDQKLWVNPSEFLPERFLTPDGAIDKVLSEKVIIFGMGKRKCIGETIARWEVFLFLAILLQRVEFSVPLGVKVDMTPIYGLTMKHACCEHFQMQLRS

[4] = molecular target: T4, Cytochrome P450 1A1 (Homo sapiens, UniProt P04798); test: Inhibition of CYP1A1 (unknown origin)
T4 sequence (P04798 whole entry): T3 sequence (P04798 whole entry)

Row | SMILES | IC50 [1] [µM] | activity [2] [%] | activity [3] [%] | IC50 [4] [µM]
1 | N#Cc1ccc(/N=N/Nc2ccc(C#N)cc2)cc1 | 0.74 | 8 | 96 | 
2 | Brc1ccc(/N=N/Nc2ccc(Br)cc2)cc1 | 0.051 | 9 | 21 | 3
3 | CC(=O)c1ccc(/N=N/Nc2ccc(C(C)=O)cc2)cc1 | 0.59 | 19 | 33 | 4
4 | c1ccc(N=NNc2ccccc2)cc1 | 2 | 4 | 9 | 8
